#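 96-well plates; 48 h exposure; 5 concentrations. Endpoints by linear interpolation between flanking doses. Not reached: highest tested concentration assigned. GI50 is the concentration that inhibits growth by half.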 Active and inactive are the calls of the source. Cut-off read from the data, not from the text of the source: active = GI50 up to about 1.1 µM and inactive = higher.
# Legend:
# Assay in all cases: growth of human tumour cells (NCI), 48 h
# NCI-H522 = system: NCI-H522
# U-251 = system: U-251
# Malme-3M = system: Malme-3M
# SK-OV-3 = system: SK-OV-3
# IGROV-1 = system: IGROV-1
# K562 = system: K562
# CCRF-CEM = system: CCRF-CEM
# OVCAR-4 = system: OVCAR-4
# OVCAR-5 = system: OVCAR-5
# HCT-116 = system: HCT-116
# MOLT-4 = system: MOLT-4
# UO-31 = system: UO-31
# NCI-H460 = system: NCI-H460
# HL-60 = system: HL-60
# SN12C = system: SN12C
# PC-3 = system: PC-3
# UACC-62 = system: UACC-62
# SK-MEL-5 = system: SK-MEL-5
# BT-549 = system: BT-549
# NCI/ADR-RES = system: NCI/ADR-RES
# 786-0 = system: 786-0
# MDA-MB-435 = system: MDA-MB-435
# SK-MEL-2 = system: SK-MEL-2
# OVCAR-3 = system: OVCAR-3
# LOX IMVI = system: LOX IMVI
# OVCAR-8 = system: OVCAR-8
# SW-620 = system: SW-620
# RXF 393 = system: RXF 393
# SK-MEL-28 = system: SK-MEL-28
# SF-295 = system: SF-295
# RPMI-8226 = system: RPMI-8226
# MDA-N = system: MDA-N
# Hs-578T = system: Hs-578T
# A549 = system: A549
# NCI-H226 = system: NCI-H226
# HCC 2998 = system: HCC 2998
# EKVX = system: EKVX
# T47D = system: T47D
# A498 = system: A498
# COLO 205 = system: COLO 205
# MDA-MB-231 = system: MDA-MB-231
# M14 = system: M14
# HCT-15 = system: HCT-15
# SNB-75 = system: SNB-75
# DU-145 = system: DU-145
# SF-539 = system: SF-539
# SR = system: SR
# HT-29 = system: HT-29
# SF-268 = system: SF-268
# SNB-19 = system: SNB-19
# NCI-H23 = system: NCI-H23
# HOP-62 = system: HOP-62
# TK-10 = system: TK-10
# MCF7 = system: MCF7
# ACHN = system: ACHN
# KM12 = system: KM12
# UACC-257 = system: UACC-257
# CAKI-1 = system: CAKI-1
# HOP-92 = system: HOP-92
smiles,measurement,setting,value
CNc1ccc(OC)cc1S(=O)(=O)c1ccccc1[N+](=O)[O-],GI50,NCI-H522,92.3 µM (inactive)
same,GI50,U-251,> 100 µM (inactive)
same,GI50,Malme-3M,82.8 µM (inactive)
same,GI50,SK-OV-3,> 100 µM (inactive)
same,GI50,IGROV-1,> 100 µM (inactive)
same,GI50,K562,43.2 µM (inactive)
same,GI50,CCRF-CEM,26.7 µM (inactive)
same,GI50,OVCAR-4,> 100 µM (inactive)
same,GI50,OVCAR-5,> 100 µM (inactive)
same,GI50,HCT-116,> 100 µM (inactive)
same,GI50,MOLT-4,27 µM (inactive)
same,GI50,UO-31,> 100 µM (inactive)
same,GI50,NCI-H460,> 100 µM (inactive)
same,GI50,HL-60,> 100 µM (inactive)
same,GI50,SN12C,> 100 µM (inactive)
same,GI50,PC-3,52.7 µM (inactive)
same,GI50,UACC-62,> 100 µM (inactive)
same,GI50,SK-MEL-5,51.3 µM (inactive)
same,GI50,BT-549,75.2 µM (inactive)
same,GI50,NCI/ADR-RES,69.8 µM (inactive)
same,GI50,786-0,> 100 µM (inactive)
same,GI50,MDA-MB-435,> 100 µM (inactive)
same,GI50,SK-MEL-2,> 100 µM (inactive)
same,GI50,OVCAR-3,> 100 µM (inactive)
same,GI50,LOX IMVI,> 100 µM (inactive)
same,GI50,OVCAR-8,> 100 µM (inactive)
same,GI50,SW-620,> 100 µM (inactive)
same,GI50,RXF 393,> 100 µM (inactive)
same,GI50,SK-MEL-28,> 100 µM (inactive)
same,GI50,SF-295,> 100 µM (inactive)
same,GI50,RPMI-8226,> 100 µM (inactive)
same,GI50,MDA-N,> 100 µM (inactive)
same,GI50,Hs-578T,> 100 µM (inactive)
same,GI50,A549,98.2 µM (inactive)
same,GI50,NCI-H226,> 100 µM (inactive)
same,GI50,HCC 2998,> 100 µM (inactive)
same,GI50,EKVX,47.1 µM (inactive)
same,GI50,T47D,49.8 µM (inactive)
same,GI50,A498,47.4 µM (inactive)
same,GI50,COLO 205,> 100 µM (inactive)
same,GI50,MDA-MB-231,> 100 µM (inactive)
same,GI50,M14,> 100 µM (inactive)
same,GI50,HCT-15,> 100 µM
same,GI50,SNB-75,> 100 µM (inactive)
same,GI50,DU-145,> 100 µM (inactive)
same,GI50,SF-539,> 100 µM (inactive)
same,GI50,SR,> 100 µM (inactive)
same,GI50,HT-29,> 100 µM (inactive)
same,GI50,SF-268,> 100 µM (inactive)
same,GI50,SNB-19,> 100 µM (inactive)
same,GI50,NCI-H23,> 100 µM (inactive)
same,GI50,HOP-62,> 100 µM (inactive)
same,GI50,TK-10,> 100 µM (inactive)
same,GI50,MCF7,> 100 µM (inactive)
same,GI50,ACHN,> 100 µM (inactive)
CC(C#N)NCc1ccc(C(C)NC(C)C#N)cc1 (stereo not given),GI50,NCI-H522,> 100 µM (inactive)
same,GI50,U-251,> 100 µM (inactive)
same,GI50,Malme-3M,96.6 µM (inactive)
same,GI50,SK-OV-3,> 100 µM (inactive)
same,GI50,IGROV-1,> 100 µM (inactive)
same,GI50,KM12,> 100 µM (inactive)
same,GI50,K562,> 100 µM (inactive)
same,GI50,CCRF-CEM,> 100 µM (inactive)
same,GI50,OVCAR-4,> 100 µM (inactive)
same,GI50,OVCAR-5,> 100 µM (inactive)
same,GI50,HCT-116,> 100 µM (inactive)
same,GI50,MOLT-4,> 100 µM (inactive)
same,GI50,UO-31,93.1 µM (inactive)
same,GI50,UACC-257,> 100 µM (inactive)
same,GI50,NCI-H460,> 100 µM (inactive)
same,GI50,HL-60,> 100 µM (inactive)
same,GI50,SN12C,> 100 µM (inactive)
same,GI50,PC-3,> 100 µM (inactive)
same,GI50,UACC-62,> 100 µM (inactive)
same,GI50,SK-MEL-5,> 100 µM (inactive)
same,GI50,BT-549,> 100 µM (inactive)
same,GI50,NCI/ADR-RES,> 100 µM (inactive)
same,GI50,786-0,> 100 µM (inactive)
same,GI50,MDA-MB-435,> 100 µM (inactive)
same,GI50,SK-MEL-2,> 100 µM (inactive)
same,GI50,OVCAR-3,> 100 µM (inactive)
same,GI50,LOX IMVI,> 100 µM (inactive)
same,GI50,OVCAR-8,> 100 µM (inactive)
same,GI50,SW-620,> 100 µM (inactive)
same,GI50,RXF 393,> 100 µM (inactive)
same,GI50,SK-MEL-28,> 100 µM (inactive)
same,GI50,CAKI-1,> 100 µM (inactive)
same,GI50,SF-295,> 100 µM (inactive)
same,GI50,MDA-N,> 100 µM (inactive)
same,GI50,Hs-578T,> 100 µM (inactive)
same,GI50,A549,> 100 µM (inactive)
same,GI50,NCI-H226,> 100 µM (inactive)
same,GI50,HCC 2998,> 100 µM (inactive)
same,GI50,EKVX,> 100 µM (inactive)
same,GI50,T47D,> 100 µM (inactive)
same,GI50,A498,> 100 µM (inactive)
same,GI50,COLO 205,> 100 µM (inactive)
same,GI50,MDA-MB-231,> 100 µM (inactive)
same,GI50,M14,> 100 µM (inactive)
same,GI50,HCT-15,> 100 µM
same,GI50,DU-145,> 100 µM (inactive)
same,GI50,SF-539,> 100 µM (inactive)
same,GI50,HT-29,> 100 µM (inactive)
same,GI50,SF-268,> 100 µM (inactive)
same,GI50,SNB-19,> 100 µM (inactive)
same,GI50,HOP-92,> 100 µM (inactive)
same,GI50,NCI-H23,> 100 µM (inactive)
same,GI50,TK-10,> 100 µM (inactive)
same,GI50,MCF7,> 100 µM (inactive)
same,GI50,ACHN,> 100 µM (inactive)
NC(=O)CSc1nc2ccccc2c(=O)n1N,GI50,NCI-H522,> 100 µM (inactive)
same,GI50,U-251,> 100 µM (inactive)
same,GI50,Malme-3M,> 100 µM (inactive)
same,GI50,IGROV-1,> 100 µM (inactive)
same,GI50,KM12,> 100 µM (inactive)
same,GI50,K562,> 100 µM (inactive)
same,GI50,OVCAR-4,> 100 µM (inactive)
same,GI50,OVCAR-5,> 100 µM (inactive)
same,GI50,HCT-116,> 100 µM (inactive)
same,GI50,MOLT-4,> 100 µM (inactive)
same,GI50,UO-31,> 100 µM (inactive)
same,GI50,UACC-257,> 100 µM (inactive)
same,GI50,NCI-H460,> 100 µM (inactive)
same,GI50,SN12C,> 100 µM (inactive)
same,GI50,PC-3,> 100 µM (inactive)
same,GI50,UACC-62,> 100 µM (inactive)
same,GI50,SK-MEL-5,> 100 µM (inactive)
same,GI50,BT-549,> 100 µM (inactive)
same,GI50,NCI/ADR-RES,> 100 µM (inactive)
same,GI50,786-0,> 100 µM (inactive)
same,GI50,MDA-MB-435,> 100 µM (inactive)
same,GI50,SK-MEL-2,> 100 µM (inactive)
same,GI50,OVCAR-3,> 100 µM (inactive)
same,GI50,LOX IMVI,> 100 µM (inactive)
same,GI50,OVCAR-8,> 100 µM (inactive)
same,GI50,SW-620,> 100 µM (inactive)
same,GI50,RXF 393,> 100 µM (inactive)
same,GI50,SK-MEL-28,> 100 µM (inactive)
same,GI50,CAKI-1,> 100 µM (inactive)
same,GI50,SF-295,> 100 µM (inactive)
same,GI50,RPMI-8226,> 100 µM (inactive)
same,GI50,MDA-N,> 100 µM (inactive)
same,GI50,Hs-578T,> 100 µM (inactive)
same,GI50,A549,> 100 µM (inactive)
same,GI50,NCI-H226,> 100 µM (inactive)
same,GI50,HCC 2998,> 100 µM (inactive)
same,GI50,EKVX,> 100 µM (inactive)
same,GI50,T47D,> 100 µM (inactive)
same,GI50,A498,> 100 µM (inactive)
same,GI50,COLO 205,> 100 µM (inactive)
same,GI50,MDA-MB-231,> 100 µM (inactive)
same,GI50,M14,> 100 µM (inactive)
same,GI50,HCT-15,> 100 µM
same,GI50,SNB-75,> 100 µM (inactive)
same,GI50,DU-145,> 100 µM (inactive)
same,GI50,SF-539,> 100 µM (inactive)
same,GI50,SR,> 100 µM (inactive)
same,GI50,HT-29,> 100 µM (inactive)
same,GI50,SF-268,> 100 µM (inactive)
same,GI50,SNB-19,> 100 µM (inactive)
same,GI50,HOP-92,> 100 µM (inactive)
same,GI50,NCI-H23,> 100 µM (inactive)
same,GI50,TK-10,> 100 µM (inactive)
same,GI50,MCF7,> 100 µM (inactive)
same,GI50,ACHN,> 100 µM (inactive)

# Reference: ChEMBL document CHEMBL1201862, “PubChem BioAssay data set” (2004)
